US11697646B2, “Triazole N-linked carbamoyl cyclohexyl acids as LPA antagonists” (BRISTOL-MYERS SQUIBB COMPANY, priority 2017, dated 2023)

target: T1, human LPA1 (Homo sapiens, UniProt Q92633); experiment: LPA1 functional antagonist assay (calcium flux); type: cell-based; conditions: CHO cells overexpressing human LPA1; calcium flux induced by 10 nM LPA; read-out: hLPA1 IC50
T1 construct: expressed in transfected cells; host or cells: Chinese hamster ovary (CHO) cells
Description: The effectiveness of compounds of the present invention as LPA1 inhibitors can be determined in an LPA1 functional antagonist assay as follows:
The cells were then equilibrated to room temperature for 30 minutes before the assay. […] IC50 values were determined by fitting data to a 4-parameter logistic equation (GraphPad Prism, San Diego Calif.).

T1 sequence (Q92633 whole entry): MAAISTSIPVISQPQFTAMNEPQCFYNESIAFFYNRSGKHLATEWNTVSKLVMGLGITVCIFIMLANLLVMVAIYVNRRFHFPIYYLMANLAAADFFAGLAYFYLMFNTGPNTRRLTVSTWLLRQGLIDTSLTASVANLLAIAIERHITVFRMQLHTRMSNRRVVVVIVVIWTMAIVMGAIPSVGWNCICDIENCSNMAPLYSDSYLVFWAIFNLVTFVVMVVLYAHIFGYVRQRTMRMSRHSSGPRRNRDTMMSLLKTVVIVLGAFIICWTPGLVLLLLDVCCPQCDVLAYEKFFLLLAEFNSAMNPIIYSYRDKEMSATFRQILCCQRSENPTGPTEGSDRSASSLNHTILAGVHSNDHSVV

| IC50 | SMILES |
| --- | --- |
| 0.006 µM | Cc1nc(-c2nnn(C)c2CNC(=O)OCc2cccc(F)c2)ccc1O[C@H]1CCC[C@H](C(=O)O)C1 [Example 11, (1S,3S)-3-((6-(5-(((((3-fluorobenzyl)oxy)carbonyl)amino)methyl)-1-methyl-1H-1,2,3-triazol-4-yl)-2-methylpyridin-3-yl)oxy)cyclohexane-1-carboxylic acid] |
| 0.044 µM | Cc1nc(-c2nnn(C)c2CNC(=O)OCC2CC2(F)F)ccc1OC1CCCC(C(=O)O)C1 (single isomer, unassigned) [Example 207] |
| 0.012 µM | CCCC1(COC(=O)NCc2c(-c3ccc(O[C@H]4CCC[C@H](C(=O)O)C4)c(C)n3)nnn2C)CC1 [Example 60, (1S,3S)-3-((2-methyl-6-(1-methyl-5-(((((1-propylcyclopropyl)methoxy)carbonyl)amino)methyl)-1H-1,2,3-triazol-4-yl)pyridin-3-yl)oxy)cyclohexane-1-carboxylic acid] |
| 0.3 µM | Cc1nc(-c2nnn(C)c2NC(=O)OCC2CC2)c(F)cc1O[C@H]1CCC[C@H](C(=O)O)C1 [Example 218, (1S,3S)-3-{[6-(5-{[(cyclopropylmethoxy)carbonyl]amino}-1-methyl-1H-1,2,3-triazol-4-yl)-5-fluoro-2-methylpyridin-3-yl]oxy} cyclohexane-1-carboxylic acid] |
| 0.014 µM | Cn1nnc(-c2ccc(O[C@H]3CCC[C@H](C(=O)O)C3)c(C(F)(F)F)n2)c1CNC(=O)OCc1ccccc1 [Example 92, (1S,3S)-3-((6-(5-((((benzyloxy)carbonyl)amino)methyl)-1-methyl-1H-1,2,3-triazol-4-yl)-2-(trifluoro-methyl)pyridin-3-yl)oxy)cyclohexane-1-carboxylic acid] |
| 0.071 µM | Cc1nc(-c2nnn(C)c2CNC(=O)OCCCC(C)(F)F)ccc1O[C@H]1CCC[C@H](C(=O)O)C1 [Example 206, (1S,3S)-3-((6-(5-(((((4,4-difluoropentyl)oxy)carbonyl)amino)methyl)-1-methyl-1H-1,2,3-triazol-4-yl)-2-methylpyridin-3-yl)oxy)cyclohexane-1-carboxylicacid] |
| 0.382 µM | Cc1nc(-c2nnn(C)c2CNC(=O)OCC(C)C)c(F)cc1O[C@H]1CCC[C@H](C(=O)O)C1 [Example 213] |
| 0.005 µM | Cc1nc(-c2nnn(C)c2CNC(=O)OCc2ccccc2)ccc1O[C@@H]1CCC[C@@](F)(C(=O)O)C1 (single isomer, unassigned) [Example 210] |
| 0.647 µM | CCCCNC(=O)NCc1c(-c2ccc(O[C@H]3CCC[C@H](C(=O)O)C3)c(CC)n2)nnn1C [Example 151, (1S,3S)-3-((6-(5-((3-butyl-ureido)methyl)-1-methyl-1H-1,2,3-triazol-4-yl)-2-ethylpyridin-3-yl)oxy)cyclohexane-1-carboxylic acid] |
| 0.092 µM | Cc1nc(-c2nnn(C)c2CNC(=O)N(C)CCC(C)C)ccc1O[C@H]1CCC[C@H](C(=O)O)C1 [Example 116, (1S,3S)-3-((6-(5-((3-isopentyl-3-methyl-ureido)methyl)-1-methyl-1H-1,2,3-triazol-4-yl)-2-methylpyridin-3-yl)oxy)cyclohexane-1-carboxylic acid] |
| 0.42 µM | Cc1nc(-c2nnn(C)c2CNC(=O)NC2CC3CCC2C3)ccc1O[C@H]1CCC[C@H](C(=O)O)C1 (stereo partly drawn) [Example 117, (1S,3S)-3-((6-(5-((3-(bicyclo [2.2.1]heptan-2-yl)ureido)methyl)-1-methyl-1H-1,2,3-triazol-4-yl)-2-methylpyridin-3-yl)oxy)cyclohexane-1-carboxylic acid] |
| 0.104 µM | C[C@@H](OC(=O)NCc1c(-c2ccc(O[C@H]3CCC[C@H](C(=O)O)C3)cn2)nnn1C)c1ccccc1 [Example 10, (1S,3S)-3-((6-(1-methyl-5-(((((R)-1-phenylethoxy)carbonyl)amino)methyl)-1H-1,2,3-triazol-4-yl)pyridin-3-yl)oxy)cyclohexane-1-carboxylic acid] |
| 0.517 µM | CCCC(C)NC(=O)Nc1c(-c2ccc(O[C@H]3CCC[C@H](C(=O)O)C3)c(C)n2)nnn1C (mixture of isomers) [Example 147, (1S,3S)-3-((2-methyl-6-(1-methyl-5-(3-(pentan-2-yl)ureido)-1H-1,2,3-triazol-4-yl)pyridin-3-yl)oxy)cyclo-hexane-1-carboxylic acid] |
| 0.035 µM | Cc1nc(-c2nnn(C)c2CNC(=O)OCC(C)(C)C)ccc1O[C@H]1CCC[C@H](C(=O)O)C1 [Example 22, (1S,3S)-3-((2-methyl-6-(1-methyl-5-((((neopentyloxy)carbonyl)amino)methyl)-1H-1,2,3-triazol-4-yl)pyridin-3-yl)oxy)cyclohexane-1-carboxylic acid] |
| 0.016 µM | CCCCCOC(=O)NCc1c(-c2ccc(O[C@H]3CCC[C@H](C(=O)O)C3)cn2)nnn1C [Example 27, (1S,3S)-3-((6-(1-methyl-5-((((pentyloxy)carbonyl)amino)methyl)-1H-1,2,3-triazol-4-yl)pyridin-3-yl)oxy)cyclohexane-1-carboxylic acid] |
| 0.038 µM | CCC1(COC(=O)NCc2c(-c3ccc(O[C@H]4CCC[C@H](C(=O)O)C4)c(C)n3)nnn2C)CC1 [Example 58, (1S,3S)-3-((6-(5-(((((1-ethylcyclopropyl)methoxy)carbonyl)amino)methyl)-1-methyl-1H-1,2,3-triazol-4-yl)-2-methylpyridin-3-yl)oxy)cyclohexane-1-carboxylic acid] |
| 0.012 µM | Cc1nc(-c2nnn(C)c2CNC(=O)O[C@H](C)c2ccccc2)ccc1O[C@H]1CCC[C@H](C(=O)O)C1 [Example 18, (1S,3S)-3-((2-methyl-6-(1-methyl-5-(((((R)-1-phenylethoxy)carbonyl)amino)methyl)-1H-1,2,3-triazol-4-yl)pyridin-3-yl)oxy)cyclohexane-1-carboxylic acid] |
| 0.036 µM | Cn1nnc(-c2ccc(O[C@H]3CCC[C@H](C(=O)O)C3)cn2)c1NC(=O)OCC1CCCCC1 [Example 86, (1S,3S)-3-((6-(5-(((cyclohexyl-methoxy)carbonyl)amino)-1-methyl-1H-1,2,3-triazol-4-yl)pyridin-3-yl)oxy)cyclohexane-1-carboxylic acid] |
| 0.449 µM | CCCCN(C)S(=O)(=O)NCc1c(-c2ccc(O[C@H]3CCC[C@H](C(=O)O)C3)c(C)n2)nnn1C [Example 138, (1S,3S)-3-((6-(5-(((N-butyl-N-methylsulfamoyl)amino)methyl)-1-methyl-1H-1,2,3-triazol-4-yl)-2-methylpyridin-3-yl)oxy)cyclohexane-1-carboxylic acid] |
| 0.218 µM | Cc1nc(-c2nnn(C)c2CN(C)C(=O)NCc2ccccc2)ccc1O[C@H]1CCC[C@H](C(=O)O)C1 [Example 113, (1S,3S)-3-((6-(5-((3-benzyl-1-methylureido)methyl)-1-methyl-1H-1,2,3-triazol-4-yl)-2-methyl-pyridin-3-yl)oxy)cyclohexane-1-carboxylic acid] |

| SMILES | IC50 |
| --- | --- |
| CC(COC(=O)NCc1c(-c2ccc(O[C@H]3CCC[C@H](C(=O)O)C3)cn2)nnn1C)CC(F)(F)F (mixture of isomers) [Example 31, (1S,3S)-3-((6-(1-methyl-5-((((4,4,4-trifluoro-2-methylbutoxy)carbonyl)amino)methyl)-1H-1,2,3-triazol-4-yl)pyridin-3-yl)oxy)cyclohexanecarboxylic acid] | 0.102 µM |
| Cc1ccc(OC(=O)NCc2c(-c3ccc(O[C@H]4CCC[C@H](C(=O)O)C4)c(C)n3)nnn2C)cc1 [Example 62, (1S,3S)-3-((2-methyl-6-(1-methyl-5-((((p-tolyloxy)carbonyl)amino)methyl)-1H-1,2,3-triazol-4-yl)pyridin-3-yl)oxy)cyclohexane-1-carboxylic acid] | 0.148 µM |
| CC(C)COC(=O)NCc1c(-c2ccc(O[C@H]3CCC[C@H](C(=O)O)C3)c(C(F)F)n2)nnn1C [Example 99, (1S,3S)-3-((2-(difluoromethyl)-6-(5-(((isobutoxycarbonyl)amino)methyl)-1-methyl-1H-1,2,3-triazol-4-yl)pyridin-3-yl)oxy)cyclohexane-1-carboxylic acid] | 0.071 µM |
| CC(C)COC(=O)NCc1c(-c2ccc(O[C@H]3CCC[C@H](C(=O)O)C3)cn2)nnn1C [Example 29, (1S,3S)-3-((6-(5-(((isobutoxycarbonyl)amino)methyl)-1-methyl-1H-1,2,3-triazol-4-yl)pyridin-3-yl)oxy)cyclohexane-1-carboxylic acid] | 0.179 µM |
| Cc1nc(-c2nnn(C)c2CNC(=O)OCC(C)C)ccc1O[C@H]1CCC[C@H](C(=O)O)C1 [Example 25, (1S,3S)-3-((6-(5-(((isobutoxycarbonyl)amino)methyl)-1-methyl-1H-1,2,3-triazol-4-yl)-2-methyl-pyridin-3-yl)oxy)cyclohexane-1-carboxylic acid] | 0.051 µM |

same assay, conditions: human LPA1 functional antagonist assay; read-out: hLPA1 IC50

| IC50 | SMILES |
| --- | --- |
| 0.046 µM | Cc1nc(-c2nnn(C)c2CNC(=O)OCC2CC2C)ccc1O[C@H]1CCC[C@H](C(=O)O)C1 (stereo partly drawn) [Example 179, (1S,3S)-3((2-methyl-6-(1-methyl-5-(((((2-methylcyclopropyl)methoxy)carbonyl)amino)methyl)-1H-1,2,3-triazol-4-yl)pyridin-3-yl)oxy)cyclohexane-1-carboxylic acid] |
| 0.167 µM | Cc1nc(-c2nnn(C)c2CNC(=O)O[C@@H](C)C(C)C)ccc1O[C@H]1CCC[C@H](C(=O)O)C1 [Example 173, (1S,3S)-3((2-methyl-6-(1-methyl-5-((((((S)-3-methylbutan-2-yl)oxy)carbonyl)amino)methyl)-1H-1,2,3-triazol-4-yl)pyridin-3-yl)oxy)cyclohexane-1-carboxylic acid] |
| 0.066 µM | Cc1nc(-c2nnn(C)c2CNC(=O)OCCC2CC2)cnc1O[C@H]1CCC[C@H](C(=O)O)C1 [Example 160, (1S,3S)-3-((5-(5-((((2-cyclopropylethoxy)carbonyl)amino)methyl)-1-methyl-1H-1,2,3-triazol-4-yl)-3-methylpyrazin-2-yl)oxy)cyclo-hexane-1-carboxylic acid] |
